Drawing on ChEMBL document CHEMBL1155550, “Rationale design of biotinylated antimalarial endoperoxide carbon centered radical prodrugs for applications in proteomics” (J Med Chem, 2010), this text covers IC50 for ten compounds.

By IC50 is commonly meant the concentration that inhibits the measured activity by half.

The first assay relates to Plasmodium falciparum. The assay is described as follows: Antiplasmodial activity against chloroquine-sensitive Plasmodium falciparum 3D7 infected in human erythrocytes assessed as inhibition of [3H]hypoxanthine incorporation after 48 hrs by liquid scintillation counting. It is filed as functional, organism-based.
Settings: not given; call rule not given here
For the compound `O=C(CCCC[C@@H]1SC[C@@H]2NC(=O)N[C@@H]21)NS(=O)(=O)c1cccc(CNC(=O)C23CC4CC(C2)[C@]2(OO[C@]5(CCCCC5)O2)C(C4)C3)c1`, the IC50 result is given as “Not Active”.

The same assay, now with this note: Plasmodium falciparum, 3D7; read-out: IC50.
As to `C[C@H]1[C@@H](CCOC(=O)NCCCCC[C@@H]2SC[C@@H]3NC(=O)N[C@@H]32)O[C@@H]2O[C@]3(C)CC[C@H]4[C@H](C)CC[C@@H]1[C@@]24OO3`, the IC50 worked out at 1.6 nM.
For `O=C(NCCCC[C@H]1SC[C@H]2NC(=O)N[C@H]21)NCc1cccc(CNC(=O)C23CC4CC(C2)[C@]2(OO[C@]5(CCCCC5)O2)C(C4)C3)c1`, the IC50 was 2.4 nM.
On the same count and under the same terms, under `O=C(O)C12CC3CC(C1)[C@]1(OO[C@]4(CCCCC4)O1)C(C3)C2` stands 150 nM.
`OCC12CC3CC(C1)[C@]1(OO[C@]4(CCCCC4)O1)C(C3)C2`: the IC50 turned out to be 8.4 nM.
Same read-out and setting: the figure for `C[C@H]1[C@@H](CC(=O)NCc2cccc(CNC(=O)CCSSCCNC(=O)CCCC[C@@H]3SC[C@@H]4NC(=O)N[C@@H]43)c2)O[C@@H]2O[C@]3(C)CC[C@H]4[C@H](C)CC[C@@H]1[C@@]24OO3` is 91 nM; for `O=C(NCc1cccc(CNC(=O)C23CC4CC(C2)[C@]2(OO[C@]5(CCCCC5)O2)C(C4)C3)c1)OCC1c2ccccc2-c2ccccc21` it is 27 nM; for `COC(=O)C12CC3CC(C1)[C@]1(OO[C@]4(CCCCC4)O1)C(C3)C2` it is 5.7 nM.
The same measure, in the same setting: the figure for `C[C@H]1[C@@H](CC(=O)NCc2cccc(CNC(=O)c3ccc(S(=O)(=O)NC(=O)CCCC[C@@H]4SC[C@@H]5NC(=O)N[C@@H]54)cc3)c2)O[C@@H]2O[C@]3(C)CC[C@H]4[C@H](C)CC[C@@H]1[C@@]24OO3` is more than 1000 nM; for `CC(C)(C)OC(=O)NCc1cccc(CNC(=O)C23CC4CC(C2)[C@]2(OO[C@]5(CCCCC5)O2)C(C4)C3)c1` it is 5.1 nM.
